Laboratory results as given in the supplement of paper PMC9663587.

Assays:
[1] = compound: CC(C)n1nc(-c2ccc3oc(N)nc3c2)c2c(N)ncnc21 [INK128/MLN0128]
[2] = compound: CCc1cnn2c(NCc3ccc[n+]([O-])c3)cc(N3CCCC[C@H]3CCO)nc12
[3] = compound: Cc1nc(-c2cn3c(n2)-c2ccc(-c4cnn(C(C)(C)C(N)=O)c4)cc2OCC3)n(C(C)C)n1 [Taselisib/GDC0032]
[4] = compound: COc1cccc2c1C(=O)c1c(O)c3c(c(O)c1C2=O)C[C@@](O)(C(=O)CO)C[C@@H]3O[C@H]1C[C@H](N)[C@H](O)[C@H](C)O1 [Doxorubicin]
[5] = compound: CCC1=CN=CN=C1N2CCN(CC2)CC3=NC4=C(N3)C=C(C=C4)C(F)(F)F
[6] = compound: CN(C)C/C=C/C(=O)NC1=CC=C(C=C1)C(=O)NC2=CC=CC(=C2)NC3=NC=NC(=C3)C4=CNC5=CC=CC=C54 [THZ-P1-2]
[7] = compound: CNc1nc(-c2ccc3c(N)n[nH]c3c2)cc(N2C[C@@H](C(=O)NC3CCCCC3)CC[C@H]2C)n1
[8] = compound: CC(C)NC[C@@H](C(=O)N1CCN(c2ncnc3c2[C@H](C)C[C@H]3O)CC1)c1ccc(Cl)cc1 [Ipatasertib/GDC0068]
[9] = compound: O=C(c1cc(Cc2n[nH]c(=O)c3ccccc23)ccc1F)N1CCN(C(=O)C2CC2)CC1 [Olaparib/AZD2281]
[10] = compound: CC1=CN2C(=O)C=C(N=C2C(=C1)C(C)NC3=CC=CC=C3)N4CCOCC4 [TGX221]
[11] = compound: CN(C)CC[C@H](CSc1ccccc1)Nc1ccc(S(=O)(=O)NC(=O)c2ccc(N3CCN(Cc4ccccc4-c4ccc(Cl)cc4)CC3)cc2)cc1[N+](=O)[O-] [ABT-737]
[12] = compound: CC[C@@H]1C(=O)N(C)c2cnc(Nc3ccc(C(=O)N[C@H]4CC[C@H](N5CCN(CC6CC6)CC5)CC4)cc3OC)nc2N1C(C)C [Volasertib/BI6727]
[13] = compound: CNC(=O)c1cccc(-c2ccc3c(N4CCOC[C@@H]4C)nc(N4CCOC[C@@H]4C)nc3n2)c1 [AZD2014]
[14] = compound: C1=CC2=C(C=CC(=C2)C=C3C(=O)NC(=NCC4=CC=CS4)S3)N=C1 [R0-3306]
[15] = compound: Cc1nn(C)c(COc2ccc(N3CCN(S(=O)(=O)N(C)C)CC3)cc2)c1-c1cccc2c(CCCOc3cccc4ccccc34)c(C(=O)O)n(CCN3CCOCC3)c12
[16] = compound: Cc1nc(Nc2ncc(C(=O)Nc3c(C)cccc3Cl)s2)cc(N2CCN(CCO)CC2)n1 [Dasatinib]
[17] = compound: CN(C)C/C=C/C(=O)Nc1ccc(O[C@@H]2CCC[C@@H](Nc3ncc(Cl)c(-c4c[nH]c5ccccc45)n3)C2)cc1 [BSJ-01-175]
[18] = compound: CN1CC[C@H](c2c(O)cc(O)c3c(=O)cc(-c4ccccc4Cl)oc23)[C@H](O)C1 [Flavopiridol]
[19] = compound: CCOc1cc2ncc(C#N)c(Nc3ccc(OCc4ccccn4)c(Cl)c3)c2cc1NC(=O)/C=C/CN(C)C [Neratinib/HKI272]
[20] = compound: NC(=O)Nc1cc(-c2cccc(F)c2)sc1C(=O)N[C@H]1CCCNC1 [AZD7762]
[21] = compound: C1=CC(=CC(=C1)N2C(=O)C=CC3=CN=C4C=CC(=CC4=C32)C5=CN=C(C=C5)N)C(F)(F)F [Torin2]
[22] = compound: O=C1NC(=O)[C@@H](c2cn3c4c(cccc24)CCC3)[C@@H]1c1c[nH]c2ccccc12 [Tivantinib/ARQ197]
[23] = compound: CN(C)C(=O)c1cc2cnc(Nc3ccc(N4CCNCC4)cn3)nc2n1C1CCCC1 [LEE011/Ribociclib]
[24] = compound: Nc1cc(C(F)(F)F)c(-c2cc(N3CCOCC3)nc(N3CCOCC3)n2)cn1 [Buparlisib/NVP-BKM120]
[25] = compound: CN1CCN(C(=O)c2ccc3cc(CCNc4ncnc5ccc(C#N)cc45)ccc3c2)CC1 [senexin b]
[26] = compound: CC(=O)O[C@H]1C(=O)[C@@]2(C)[C@H]([C@H](OC(=O)c3ccccc3)[C@]3(O)C[C@H](OC(=O)[C@H](O)[C@@H](NC(=O)c4ccccc4)c4ccccc4)C(C)=C1C3(C)C)[C@]1(OC(C)=O)CO[C@@H]1C[C@@H]2O [Paclitaxel]
[27] = compound: Cc1cc(Nc2ncc(Cl)c(Nc3ccccc3S(=O)(=O)C(C)C)n2)c(OC(C)C)cc1C1CCNCC1 [Ceritinib/LDK378]
[28] = compound: CC(=O)c1c(C)c2cnc(Nc3ccc(N4CCNCC4)cn3)nc2n(C2CCCC2)c1=O
[29] = compound: CS(=O)(=O)N1CCN(Cc2cc3nc(-c4cccc5[nH]ncc45)nc(N4CCOCC4)c3s2)CC1 [Pictilisib/GDC0941]
[30] = compound: COc1cc2nccc(Oc3ccc(NC(=O)C4(C(=O)Nc5ccc(F)cc5)CC4)cc3)c2cc1OC [Cabozantinib]
[31] = compound: CCNC(=O)c1noc(-c2cc(C(C)C)c(O)cc2O)c1-c1ccc(CN2CCOCC2)cc1 [Luminespib/NVP-AUY922]
[32] = compound: CC(=O)c1c(C)c2cnc(Nc3ccc(N4CCN(CCOCCOCCOCCNC(=O)COc5cccc6c5C(=O)N(C5CCC(=O)NC5=O)C6=O)CC4)cn3)nc2n(C2CCCC2)c1=O [BSJ-03-123]
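Further: breast cancer and non-malignant breast epithelial cell lines, Deep Dye Drop or Dye Drop imaging, nine half-log doses, GR normalized to time-zero plates and DMSO-only controls.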

Cell Line	GR50, 72 h [1] [µM]	GR50, 72 h [2] [µM]	GR50, 72 h [3] [µM]	GR50, 72 h [4] [µM]	GR50, 72 h [5] [µM]	GR50, 72 h [6] [µM]	GR50, 72 h [7] [µM]	GR50, 72 h [8] [µM]	GR50, 72 h [9] [µM]	GR50, 72 h [10] [µM]	GR50, 72 h [11] [µM]	GR50, 72 h [12] [µM]	GR50, 72 h [13] [µM]	GR50, 72 h [14] [µM]	GR50, 72 h [15] [µM]	GR50, 72 h [16] [µM]	GR50, 72 h [17] [µM]	GR50, 72 h [18] [µM]	GR50, 72 h [19] [µM]	GR50, 72 h [20] [µM]	GR50, 72 h [21] [µM]	GR50, 72 h [22] [µM]	GR50, 72 h [23] [µM]	GR50, 72 h [24] [µM]	GR50, 72 h [25] [µM]	GR50, 72 h [26] [µM]	GR50, 72 h [27] [µM]	GR50, 72 h [28] [µM]	GR50, 72 h [29] [µM]	GR50, 72 h [30] [µM]	GR50, 72 h [31] [µM]	GR50, 72 h [32] [µM]
HS578T	0.00906	0.00894	0.575	0.00411	> 10	> 10	> 10	4.59	8.91	> 10	> 10	0.00257	0.0683	4.28	> 10	0.0386	0.0056	0.148	0.644	0.0151	0.0071	0.337	2.33	0.687	> 10	0.00102	0.965	0.156	1.16	6.38	0.0033	1.45
MCF7	0.00298	0.00831	0.00836	0.0161	> 10	3.65	3.23	1.3	> 10	> 10	> 10	0.00287	< 0.001	6.26	> 10	0.0694	0.006	0.0847	1.26	0.0414	0.00456	0.151	0.185	0.187	> 10	0.00138	0.344	0.075	0.13	4.82	0.00871	1.42
MCF10A	0.0242	0.0162	0.119	0.0108	> 10	7	> 10	> 10	> 10	> 10	> 10	0.0221	0.473	5.9	> 10	0.709	1.46	0.152	0.102	1.81	0.032	0.181	> 10	1.47	> 10	0.00268	2.99	1.95	1.88	> 10	0.00762	1.09
MCF12A	0.022	0.0371	1.11	0.0155	> 10	8.04	> 10	> 10	> 10	> 10	> 10	0.0519	0.0768	9.7	> 10	0.209	4.32	0.38	0.422	0.129	0.0424	0.291	> 10	2.84	> 10	0.00577	7.62	> 3.16	6.67	> 10	0.0103	5.35
MDAMB231	0.0218	0.0103	2.2	0.00504	> 10	4.94	> 10	> 10	> 10	> 10	3.03	0.00436	0.583	8.73	> 10	0.0294	0.0118	0.139	1.43	0.163	0.0251	0.416	0.995	1.51	> 10	0.00232	0.866	0.109	5.32	4.83	0.0058	0.731
MDAMB415	0.0102	0.0203	0.293	0.00521	8.3	0.0764	1.34	0.0507	> 10	1.81	7.69	0.0112	0.006	> 10	> 10	0.236	0.0616	0.172	1.65	0.475	0.00771	1.5	0.00974	1.02	> 10	0.000687	3.76	0.0304	0.597	6.41	0.00909	1.36
MDAMB436	0.0241	0.0143	4.66	0.00761	4.75	4.3	> 10	> 10	1.53	> 10	> 10	0.00518	> 10	4.65	> 10	> 10	0.00965	0.159	0.715	0.04	0.0412	0.368	> 10	1.18	8.65	0.00371	0.499	> 3.16	5.27	6.5	0.00391	7.25
